Data from US6875757B2, “LPA receptor agonists and antagonists and methods of use” (University of Tennessee Research Foundation, priority 2000, dated 2005).
Where two headings read alike, the source gives them in different places.

Assays:
Assay type in all cases: cell-based
[1] = tested on: DU-145 prostate cancer cell line; assay: Cytotoxicity / growth inhibition (SRB), DU145; conditions: read-out: IC50 ± SEM, DU145
Protocol: (§1) Cells were removed from stock flasks using trypsin, centrifuged, resuspended in fresh media, and plated at a density of approximately 2,000 cells/well in 96-well culture plates. Final drug concentrations ranged from 0.05 to either 10 or 50 μM. Control experiments with no drug added (negative control) and 5-fluorouracil added (positive control) were performed in parallel. Media was removed and replaced at 48 hours to minimize the effects of drug degradation during the course of the experiment. After 96 hours drug exposure, cells were fixed by the addition of cold 50% trichloroacetic acid (TCA) and incubation at 4° C. for 1 hour. Fixed cells were stained with sulforhodamine B (SRB), and cell number was determined by comparison of absorbance at 540 nm, as compared to a standard curve of cell number versus absorbance. Experiments were performed in duplicate.

[2] = tested on: PC-3 prostate cancer cell line; assay: Cytotoxicity / growth inhibition (SRB), PC-3; conditions: 96 hours drug exposure, read-out: IC50 ± SEM, PC-3
Protocol: as §1

[3] = tested on: LNCaP prostate cancer cell line; assay: Cytotoxicity / growth inhibition (SRB), LNCaP; conditions: 96 hours drug exposure, read-out: IC50 ± SEM, LNCaP
Protocol: as §1

[4] = molecular target: PSP24 PLGFR (Xenopus laevis, UniProt P79945); assay: Xenopus oocyte assay: LPA-induced oscillatory chloride currents (two-electrode voltage clamp); conditions: for inhibition of LPA-induced chloride currents: Xenopus oocytes, extracellular application
PSP24 PLGFR, sequence (P79945 whole entry): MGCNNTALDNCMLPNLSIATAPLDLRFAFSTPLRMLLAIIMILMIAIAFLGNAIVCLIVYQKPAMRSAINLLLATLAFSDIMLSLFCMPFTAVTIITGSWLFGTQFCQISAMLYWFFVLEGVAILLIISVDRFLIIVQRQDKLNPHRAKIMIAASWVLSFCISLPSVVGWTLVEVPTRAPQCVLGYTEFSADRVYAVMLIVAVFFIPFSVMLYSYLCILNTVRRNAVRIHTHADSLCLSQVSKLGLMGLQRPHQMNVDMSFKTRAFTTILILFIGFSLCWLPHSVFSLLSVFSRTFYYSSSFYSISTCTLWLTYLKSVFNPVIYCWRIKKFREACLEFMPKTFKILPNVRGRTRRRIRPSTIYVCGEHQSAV
Protocol: Xenopus oocytes which endogenously express PSP24 PLGFR were used to screen the newly designed and synthesized compounds for their LPA inhibitory activity.
(§2) Oocytes were obtained from xylazine-anesthetized adult Xenopus laevis frogs (Carolina Scientific, Burlington, N.C.) under aseptic conditions and prepared for experiment. […] Oocytes were kept in Barth's solution in an incubator between 17-20° C. and were used for 2-7 days after isolation.
Electrophysiological recordings were carried out using a standard two-electrode voltage-clamp amplifier holding the membrane potential at −60 mV (GeneClamp 500, Axon Instruments, Calif.). […] Membrane currents were recorded with a NIC-310 digital oscilloscope (Nicolet, Madison, Wis.). Applications were made at intervals of 15 mins (minimum) to allow for the appropriate washout and recovery from desensitization.
as §2
Electrophysiological recordings were carried out using a standard two-electrode voltage-clamp amplifier holding the membrane potential at −60 mV (GeneClamp 500, Axon Instruments, CA). […] Membrane currents were recorded with a NIC-310 digital oscilloscope (Nicolet, Madison, Wis.). Applications were made at intervals of 15 mins (minimum) to allow for the appropriate washout and recovery from desensitization.

[5] = tested on: HEY ovarian cancer cells; assay: LPA-induced HEY ovarian cancer cell migration (cell motility); conditions: compound 1 μM against 0.1 μM LPA
Protocol: It is known that two LPA receptors, EDG-2 and EDG-7, are expressed in HEY ovarian cancer cells, so compounds 56, 56a, and 66 were evaluated for their ablity to inhibit LPA-induced cell motility (compound conc: 1 μM against 0.1 μM LPA conc:).
HEY ovarian cells were maintained in RPMI 1640 medium with 2 mM L-glutamine (GIBCO BRL) supplemented with 10% fetal bovine serum (FBS, Hyclone). All cells were synchronized to the Go/G1 stage by growing them to confluency for 2 days. The cells were replated and harvested for experiments when cells were about 50-60% confluent on the flask. After removal of the cells from the flask, they were exposed for 5 min to 0.53 mM EDTA in PBS at 37° C. EDTA was neutralized with equal volume of RPMI 1640 plus 2 mM L-glutamine and 10% FBS. Cells were centrifuged at 800 rpm for 10 min at room temperature. Harvested cells were washed twice with RPMI 1640 with 2 mM L-glutamine medium and resuspended in the concentration of 1×10^6 cells/ml, and then rested for 1 hr at 37° C.
A modified quantitative cell migration assay (Cat. # ECM500 from Chemicon, Temecula, Calif.) was used to test cell motility. The Chemicon chamber membrane was coated with fibronectin-containing pores of 8 microns in diameter. A 400 μl RPMI/2 mM L-glutamine containing either no inhibitors or inhibitors (1 μM) were pippetted into the lower chamber. About 5×10^4 cells in RPMI 1640/2 mM L-glutamine were added to the top chamber. The 24-well plates with inserts were incubated for 4 hours in a 5% CO2 incubator at 37° C. At the end of incubation, the chambers were removed to a fresh 24-well plate, and the cells on the inside chamber were removed by a swab several times and placed in the prepared Cell Stain Solution for 30 minutes at room temperature. At the end of incubation, Cell Stain Solution was removed from the wells. The chambers were washed 3 times with 1 mL PBS per well. After the final PBS wash, the chambers were examined to confirm proper cell morphology, and adherent cells were counted using an inverted microscope.

[6] = tested on: HEY ovarian cancer cells; assay: Ca2+ responses in HEY ovarian cancer cells; conditions: 100 nM LPA 18:1 mixed with 1 μM lipid
Description: Likewise, PA 8:0 inhibited the Ca^2+ response to 6% of control, whereas PA 18:1 had no effect. HEY express mRNA transcripts for Edg-1, -2, -5, -7 receptors (FIG. 34C).

[7] = molecular target: T1, human Edg-2 (Homo sapiens, UniProt Q92633); assay: Ca2+ responses (Fura-2) in RH7777 cells expressing Edg-2; conditions: 250 nM LPA 18:1 mixed with 10 μM lipid
T1 construct: expressed in transfected cells
T1 sequence (Q92633 whole entry): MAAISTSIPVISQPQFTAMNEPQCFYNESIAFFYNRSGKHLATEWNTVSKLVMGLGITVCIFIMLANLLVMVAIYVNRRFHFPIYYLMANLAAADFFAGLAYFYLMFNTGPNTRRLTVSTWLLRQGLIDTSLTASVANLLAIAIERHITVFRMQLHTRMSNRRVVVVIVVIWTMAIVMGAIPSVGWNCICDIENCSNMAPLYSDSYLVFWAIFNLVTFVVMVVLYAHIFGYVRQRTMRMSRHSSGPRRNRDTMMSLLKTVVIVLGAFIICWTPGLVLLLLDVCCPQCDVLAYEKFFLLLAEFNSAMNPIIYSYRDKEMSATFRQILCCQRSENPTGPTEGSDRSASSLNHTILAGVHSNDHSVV
Protocol: (§3) RH7777 cells were transfected with the cDNA constructs encoding human Edg-2, Edg-4, or Edg-7 and then were subcloned into the pCDNA3 expression vector using the Cytofectene transfection reagent according to the manufacturers' protocol. Transfected cells were selected in DMEM containing 10% FBS and 1 mg/ml geneticin. Resistant cells were collected and subcloned by limiting dilution. The resulting clones were then screened using functional assays and RT-PCR analysis. Data are representative of three individual clones.

[8] = molecular target: T2, human Edg-7 (Homo sapiens, UniProt Q9UBY5); assay: Ca2+ responses (Fura-2) in RH7777 cells expressing Edg-7; conditions: 250 nM LPA 18:1 mixed with 500 nM lipid
T2 construct: Flag; expressed in transfected cells
T2 sequence (Q9UBY5 1-353): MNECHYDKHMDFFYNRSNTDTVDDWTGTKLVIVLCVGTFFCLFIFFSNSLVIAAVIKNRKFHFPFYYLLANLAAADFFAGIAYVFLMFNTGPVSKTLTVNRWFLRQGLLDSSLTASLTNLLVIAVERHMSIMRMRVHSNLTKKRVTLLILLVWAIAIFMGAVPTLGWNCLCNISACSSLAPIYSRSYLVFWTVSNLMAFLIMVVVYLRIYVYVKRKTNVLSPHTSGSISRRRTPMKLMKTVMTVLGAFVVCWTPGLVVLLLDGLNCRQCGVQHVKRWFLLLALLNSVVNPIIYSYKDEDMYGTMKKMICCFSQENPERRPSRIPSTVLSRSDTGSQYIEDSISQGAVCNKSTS
Protocol: as §3

[9] = tested on: NIH3T3 cells; assay: LPA-elicited proliferation of NIH3T3 cells (cell counting); conditions: 5 μM LPA 18:1 mixed with 10 μM lipid, 24 hr
Protocol: Proliferation of NIH3T3 cells was assessed by direct cell counting as previously described (Tigyi et al., 1999). NIH3T3 cells were plated in 24-well plates at a density of 10,000 cells/well, in DMEM containing 10% FBS. The following day, the cells were rinsed and serum starved in DMEM for 6 hr. Lipids were then added for 24 hr. Cell numbers were determined by counting in a Coulter counter (Coulter Electronics, Hialeah, Fla.).

[10] = molecular target: T3, human Edg-4 (Homo sapiens, UniProt Q9HBW0); assay: Ca2+ responses (Fura-2) in RH7777 cells expressing Edg-4 (stable or transient); conditions: stable Edg-4; 500 nM LPA 18:1 mixed with 5 μM lipid
T3 construct: expressed in transfected cells
T3 sequence (Q9HBW0 whole entry): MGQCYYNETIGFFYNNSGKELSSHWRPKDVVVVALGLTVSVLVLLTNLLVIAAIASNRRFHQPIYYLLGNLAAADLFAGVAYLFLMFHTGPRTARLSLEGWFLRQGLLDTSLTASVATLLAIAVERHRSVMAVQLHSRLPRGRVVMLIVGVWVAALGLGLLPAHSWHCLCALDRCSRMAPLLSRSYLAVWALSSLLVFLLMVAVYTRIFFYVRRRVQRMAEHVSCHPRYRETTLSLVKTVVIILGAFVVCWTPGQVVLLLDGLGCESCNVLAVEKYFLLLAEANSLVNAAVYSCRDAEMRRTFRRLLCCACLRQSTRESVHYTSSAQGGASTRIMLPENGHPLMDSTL
Description: RH7777 cells, stably expressing human Edg-4, were kindly provided by Dr. Kevin Lynch (University of Virginia, Charlottesville, Va.). Flag-tagged cDNA's encoding human Edg-4 and -7 inserted into the pCDNA3 expression plasmid (Invitrogen, Carlsbad, Calif.), were a generous gift from Dr. Junken Aoki (University of Tokyo, Tokyo, Japan). RH7777 and NIH3T3 cells were obtained from the American Type Culture Collection (Manassas, Va.). HEY cells were provided by Dr. Lisa Jennings (University of Tennessee, Memphis). All cell lines were maintained in Dulbecco's Modified Eagle's Medium (DMEM) containing 10% FBS and 2 mM glutamine. Oocytes were obtained from adult Xenopus laevis frogs as previously described (Tigyi et al., 1999).
as §3
RH7777 cells were plated on polylysine-coated glass coverslips (Bellco, Vineland, N.J.) one day prior to transfection. The following day, cells were transfected overnight (16-18 hr) with 1 μg of plasmid DNA mixed with 6 μl of Cytofectene. The cells were then rinsed twice with DMEM and cultured in DMEM containing 10% FBS. The next day, the cells were rinsed with DMEM and serum was withdrawn for a minimum of 2 hr prior to monitoring intracellular Ca^2+.

How did the IC50 ([1]; 96 hours drug exposure) turn out when “2-Amino-3-(nonylamino)-3-oxopropyl dihydrogen phosphate [Compound 55]” was run?
Its IC50 is 24.9 ± 4.1 µM.

What about the IC50 [2] of the same compound?
The IC50 was 31.6 ± 9 µM.

What about the IC50 [3] of the same compound?
The IC50 was 4.9 ± 2.6 µM.

And the “inhibition of LPA-induced response” value ([4]; compound at 1 μM against 2 nM LPA)?
Its value is 38%.

And the “effect on LPA-induced cell motility” value [5]?
The value was “potentiated the LPA-induced cell motility”.

Which IC50 ([1]; 96 hours drug exposure) does the source give for `CCCCCCCCCCCCCCNC(=O)C(COP(=O)(O)O)NC(C)=O` (stereo not drawn) [Compound 56a, 2-(Acetylamino)-3-oxo-3-(tetradecylamino) propyl dihydrogen phosphate] here?
Its IC50 is 0.7 ± 0.1 µM.

And the IC50 [3]?
Its IC50 is 30.3 ± 7.9 µM.

And the “effect on LPA response when applied in combination with LPA” value ([4]; applied in combination with LPA)?
The value was “enhanced the LPA response”.

And the “response elicited by compound alone at 2 μM” value ([4]; compound alone, 2 μM)?
Its value is “did not elicit a response”.

And the “response elicited by compound alone at 10 μM” value ([4]; compound alone, 10 μM)?
The value was “able to elicit a response on its own”.

What about the “effect on LPA-induced cell motility” value [5] of the same compound?
Its value is “potentiated the LPA-induced cell motility”.

With `CCCCCCCCCCCCCCCCCCOCC(COP(=O)(O)O)OP(=O)(O)O` (stereo not drawn) [Compound 66, 1,2-(3-Octadecyloxypropane)-bis(dihydrogen phosphate)] as the compound, how does the IC50 ([1]; Homo sapiens, DU-145, 96 hours drug exposure) read?
Its IC50 is greater than 10 µM.

What about the IC50 [2] of the same compound?
The IC50 was greater than 10 µM.

And the IC50 ([3]; Homo sapiens, LNCaP)?
The IC50 was 3.1 ± 3.2 µM.

And the “effect on LPA response after intracellular microinjection” value ([4]; 5 μM microinjected inside the cell, then extracellular LPA (10 nM))?
Its value is “failed to inhibit the LPA response”.

What about the “inhibition of LPA-induced chloride currents” value [4] of the same compound?
Its value is “inhibitors of LPA-induced chloride current”.

What about the “reversibility of inhibition of LPA-induced chloride currents” value ([4]; after washing the oocyte) of the same compound?
The value was “reversible”.

What about the “effect on the LPA response at 5 μM” value ([4]; compound at 5 μM) of the same compound?
The value was “completely abolished the effect of LPA”.

What about the inhibition at 1 µM [5] of the same compound?
The inhibition at 1 µM was roughly 70%.

`CCCCCCCC(=O)OC[C@H](COP(=O)(O)OP(=O)(O)O)OC(=O)CCCCCCC` [DGPP 18:1, diacylglycerol pyrophosphate] was tested. Which “effect on LPA-elicited Ca2+ response” value [6] did it give?
Its value is “had no effect”.

What about the “inhibitory effect on LPA-elicited Ca2+ response” value [7] of the same compound?
Its value is “no longer had an inhibitory effect”.

And the “effect on LPA-elicited Ca2+ responses” value [8]?
Its value is “no longer inhibitors of Edg-7”.

And the “effect on LPA-induced proliferation” value [9]?
The value was “Neither DGPP 18:1, nor long- and short-chain PA and DAG had an effect”.

Phosphatidic acid [PA 8:0] was tested. Which “Ca2+ responses, % of control” value [10] did it give?
Its value is 162 % of control.

What about the “LPA-elicited Ca2+ response, % of control” value [6] of the same compound?
Its value is 6 % of control.

And the “Ca2+ response, % of control” value [7]?
Its value is 19 % of control.

And the “inhibition of the Ca2+ responses” value [8]?
Its value is 56%.

What about the “effect on LPA-induced proliferation” value [9] of the same compound?
The value was “had no significant inhibition”.

What about the “inhibition of LPA-induced chloride currents” value [4] of the same compound?
The value was “effective at inhibiting the LPA-elicited responses”.

Which “Ca2+ responses, % of control” value [10] does the source give for Phosphatidic acid [PA 18:1] here?
Its value is 137 % of control.

And the “effect on LPA-elicited Ca2+ response” value [6]?
Its value is “had no effect”.

And the “decrease of the Ca2+ response” value [7]?
The value was 18%.

And the “effect on LPA-elicited Ca2+ responses” value [8]?
Its value is “no longer inhibitors of Edg-7”.
